Experimental data taken from patent US20230255972A1, “PYRIMIDINE COMPOUND-CONTAINING COMBINATION TO BE USED IN TUMOR TREATMENT” (TAIHO PHARMACEUTICAL CO., LTD., priority 2020, published 2023).

Key:
EGFR = target: T1, EGFR (Homo sapiens, UniProt P00533); assay: Phosphorylation activity inhibitory effect (in vitro) on wild-type EGFR; format: biochemical
T1 construct: purchased Carna Biosciences, Inc
Method: Test Example 6 Measurement of Phosphorylation Activity Inhibitory Effect (In Vitro) on Wild-Type and Mutant EGFR
The measurement of the in vitro inhibitory activity of a compound against wild-type and mutant EGFR was outsourced to Carna Biosciences, Inc. (Kinase Profiling Book, https://www.carnabio.com/japanese/product/search.cgi?mode=profiling).
Specifically, first, the pyrimidine compound of the present invention was diluted stepwise with dimethyl sulfoxide (DMSO). […] To the reaction solution, Termination Buffer was added, so as to terminate the kinase reaction. Finally, using LabChip™ EZ Reader II (PerkinElmer), an unphosphorylated substrate peptide (S) and a phosphorylated peptide (P) were separated and detected according to microchannel capillary electrophoresis.
As the pyrimidine compound of the present invention, the compound of Example 11 (Example compound 11) was used.

[1] = system: human stomach cancer cell line NCI-N87; assay: Combination (in vivo) of pyrimidine compound and capecitabine, NCI-N87 subcutaneous model
Method: Test Example 18 Combination (In Vivo) of Pyrimidine Compound and Capecitabine
A human stomach cancer cell line NCI-N87 was obtained from American Type Culture Collection (ATCC). The cell line was cultured in RPMI-1640 (containing 4.5 g/L glucose, 10 mM HEPES and 1 mM sodium pyruvate) (FUJIFILM Wako Pure Chemical Corporation) medium containing 10% fetal bovine serum (FBS) in a 5% CO2 incubator at 37° C.
The NCI-N87 cells were resuspended at a concentration of 8×10^7 cells/mL in PBS.
An aqueous solution containing 0.1 N HCl and 0.5% HPMC was used as a control.

[2] = system: Human stomach cancer-derived tumor cells 4-1ST
Method: Human stomach cancer-derived tumor cells 4-1ST were obtained as fragment tumor from the Central Institute for Experimental Animals. Tumor was removed approximately 1 month after subcutaneous transplantation and passage in a 6 week old male nude mouse (BALB/cAJc1-nu/nu, CLEA Japan, Inc.), and a fragment of approximately 2 mm square was prepared. A transplantation needle was filled with one fragment and subcutaneously inserted from around the right last rib of each nude mouse so as to enter the right back. The tumor was pushed out by pressing the inner syringe and thereby transplanted. For the measurement of the tumor size, electronic calipers were used. […] A tumor volume (TV) was calculated from this major axis and minor axis. A relative tumor volume change percentage (T/C) was calculated from the calculated tumor volume. TV and T/C were calculated according to the following equations:
Tumor Volume (TV)(mm^3)=(Major axis,mm)×(Minor axis,mm)×(Minor axis,mm)/2
Relative tumor volume change percentage (T/C)(%)=(Mean TV of the administration group)/(Mean TV of a control group)×100
For the measurement of the body weight, an animal electronic balance was used. A body weight change percentage on the n^th day (BWCn) from the body weight on 0th day (BW0) and the body weight on the n^th day (BWn) was calculated according to the following equation:
Body weight change percentage BWCn (%)=(BWn−BW0)/BW0×100
Nude mice having TV of 50 to 300 mm^3 were selected and assigned to groups each involving 6 animals by the equal number method [MiSTAT (ver. 2.1)] such that the means of TV were equal among the groups. […] An untreated group was used as a control.
The presence or absence of a combinatorial effect and toxicity was judged from the tumor sizes and the body weights on the grouping day (Day 0) and the judgement day (Day 15). During the administration period, the body weight was measured every day for calculation of the amount of the dosing solution.
An untreated group was used as a control.

[3] = day 15, Example 11 6.25 mg/kg/day, day 1-14, p.o.
[4] = Day 15, Example 11 6.25 mg/kg/day, Days 1-14, po

T1 sequence (P00533 25-1210): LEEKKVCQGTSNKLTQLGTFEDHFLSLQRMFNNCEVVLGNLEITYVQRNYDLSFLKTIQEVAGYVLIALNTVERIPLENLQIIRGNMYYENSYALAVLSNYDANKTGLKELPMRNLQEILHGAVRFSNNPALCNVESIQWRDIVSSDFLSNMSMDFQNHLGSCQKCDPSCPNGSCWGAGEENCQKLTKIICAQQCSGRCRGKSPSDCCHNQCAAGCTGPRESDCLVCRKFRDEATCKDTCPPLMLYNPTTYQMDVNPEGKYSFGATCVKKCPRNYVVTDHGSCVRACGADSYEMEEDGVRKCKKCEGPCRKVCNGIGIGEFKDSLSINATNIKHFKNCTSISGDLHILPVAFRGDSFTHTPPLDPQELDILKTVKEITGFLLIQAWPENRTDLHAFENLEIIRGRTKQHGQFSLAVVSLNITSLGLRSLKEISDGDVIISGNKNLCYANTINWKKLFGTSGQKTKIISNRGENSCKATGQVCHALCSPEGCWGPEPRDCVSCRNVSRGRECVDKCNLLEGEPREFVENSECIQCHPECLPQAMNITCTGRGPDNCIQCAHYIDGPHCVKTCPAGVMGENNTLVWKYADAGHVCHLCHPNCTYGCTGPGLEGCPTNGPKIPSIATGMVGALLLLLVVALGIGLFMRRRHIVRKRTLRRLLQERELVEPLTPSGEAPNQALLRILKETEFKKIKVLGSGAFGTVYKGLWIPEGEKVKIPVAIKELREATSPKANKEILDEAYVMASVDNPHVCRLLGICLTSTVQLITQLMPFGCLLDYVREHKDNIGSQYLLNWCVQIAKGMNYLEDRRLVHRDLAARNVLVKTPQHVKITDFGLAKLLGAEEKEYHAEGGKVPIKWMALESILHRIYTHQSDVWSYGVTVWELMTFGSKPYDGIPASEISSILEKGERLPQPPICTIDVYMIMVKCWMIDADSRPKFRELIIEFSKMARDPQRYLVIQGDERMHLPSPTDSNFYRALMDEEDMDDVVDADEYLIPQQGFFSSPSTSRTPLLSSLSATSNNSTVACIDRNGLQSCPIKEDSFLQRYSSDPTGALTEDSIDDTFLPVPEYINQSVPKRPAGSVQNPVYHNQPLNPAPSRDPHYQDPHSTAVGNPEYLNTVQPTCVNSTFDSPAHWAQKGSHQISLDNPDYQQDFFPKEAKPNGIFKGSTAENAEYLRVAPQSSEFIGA

C=CC(=O)N1C[C@H](n2c(C#CC3CC3)c(C(=O)N[C@H](C)c3ccccc3)c3c(N)ncnc32)C[C@@H]1C [Example 11, 7-((3R,5S)-1-acryloyl-5-methylpyrrolidin-3-yl)-4-amino-6-(cyclopropylethynyl)-N—((R)-1-phenylethyl)-7H-pyrrolo[2,3-d]pyrimidine-5-carboxamide] was tested, and the IC50 (EGFR) was 470 pM, the “Number of Death” value ([1]; Example 11 6.25 mg/kg/day, day 1-14, p.o.) was 0 and the “TV on Day 15 versus control group (Dunnett's test)” value ([1]; capecitabine and Example 11 po once a day, Days 1-14) was “significantly lower TV”. For the same compound, the “T/C (%)” value [1, 3] was 47%, the “Tumor volume (mm^3) day 15 Mean ± S.E.” value [1, 3] was 272.43 ± 22.22 mm^3 and the “BWC (%) Mean ± S.E.” value ([1]; mouse, in vivo, po, 6.25 mg/kg/day) was 6.3 ± 0.9%. The “BWC (%, Mean ± SE)” value [2, 4] was 4.0 ± 0.7%, the “T/C (%)” value [2, 4] was 14.5% and the “TV (mm^3, mean ± SE)” value [2, 4] was 233.6 ± 42.6 mm^3. The “Number of Death” value ([2]; Example 11 6.25 mg/kg/day, Days 1-14, po) was 0 and the “TV on Day 15 versus control group (Dunnett's test)” value ([2]; trastuzumab emtansine iv Day 1, Example 11 po Days 1-14) was “significantly lower TV”.
